# Test system: LRF (luteinizing hormone release factor) induced luteinizing hormone (LH) release
# Experiment: In vitro LRF antagonist test in rat anterior pituitary cell cultures
# Format: cell-based
# Text: Hexapeptides of this invention were screened for LRF antagonist activity in vitro using rat anterior pituitary cell cultures as described by Vale et. al. [Endocrinology, 91, 562 (1972)]. The inhibition of LRF (luteinizing hormone release factor) induced luteinizing hormone (LH) release into the culture medium is the endpoint of this in vitro bioassay.
# [1] = compound 1×10^-7 molar, run with LRF Control 3.5×10^-10 molar
# [2] = compound 2×10^-7 molar, run with LRF Control 3.5×10^-10 molar
# [3] = compound 3.5×10^-7 molar, run with LRF Control 3.5×10^-10 molar
# [4] = compound 6×10^-7 molar, run with LRF Control 3.5×10^-10 molar
# [5] = compound 6×10^-8 molar, run with LRF Control 3.5×10^-10 molar
# [6] = compound 1×10^-6 molar, run with LRF Control 2.5×10^-10 molar
substance,measurement,setting,value
"LRF Control: luteinizing hormone releasing factor, also referred to as luteinizing hormone releasing hormone, LH-RH; stimulates secretion of luteinizing hormone (QHWSYGLRPG; Gonadoliberin-1; UniProt P01148 24-33, looked up) [reference compound]",LH Value,LRF alone 2.5×10^-10 molar (first run),38.98 ng/mL
same,LH Value,LRF alone 3.5×10^-10 molar (second run),41.70 ng/mL
N^α -t-Butoxycarbonyl-L-tryptophyl-N^im -benzyl-L-histidyl-O-benzyl-L-seryl-O-benzyl-L-tyrosyl-L-prolyl-D-alanine N-ethylamide,% LH Release Inhibition,[1],49%
same,LH Value,[1],27.52 ng/mL
same,% LH Release Inhibition,[2],93%
same,LH Value,[2],14.63 ng/mL
same,% LH Release Inhibition,[3],104%
same,LH Value,[3],11.46 ng/mL
same,% LH Release Inhibition,[4],106%
same,LH Value,[4],10.90 ng/mL
same,% LH Release Inhibition,[5],11%
same,LH Value,[5],38.53 ng/mL
N^α -t-Butoxycarbonyl-L-tryptophyl-N^im -benzyl-L-histidyl-O-benzyl-L-seryl-O-benzyl-L-tyrosyl-L-prolyl-D-alanine methyl ester,% LH Release Inhibition,[6],85%
same,LH Value,[6],11.04 ng/mL

# From patent US4087417A, “Hexapeptides and methods for their production” (Parke, Davis & Company, priority 1976, dated 1978)
